The values that follow come from paper PMC6934184, “Selective DNA-PKcs inhibition extends the therapeutic index of localized radiotherapy and chemotherapy” (The Journal of Clinical Investigation, 2019).

A word on the inhibition: it is the drop in the measured response relative to a control, in per cent.

In this assay the target is T1, FGFR3 K650E (Homo sapiens, UniProt P22607, K650E).
T1 construct: purchased Thermo Fisher Scientific (Life Technologies) SelectScreen
The assay can be described thus: SelectScreen Z'LYTE. The class given is biochemical. The method in brief: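 SelectScreen broad panel; activity (Z'LYTE, Adapta) plus binding formats. ATP: Km app for CSF1R Z'LYTE; 10 for CAMK1 Adapta. Readout = % per kinase.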

T1 sequence (P22607 23-806 K650E): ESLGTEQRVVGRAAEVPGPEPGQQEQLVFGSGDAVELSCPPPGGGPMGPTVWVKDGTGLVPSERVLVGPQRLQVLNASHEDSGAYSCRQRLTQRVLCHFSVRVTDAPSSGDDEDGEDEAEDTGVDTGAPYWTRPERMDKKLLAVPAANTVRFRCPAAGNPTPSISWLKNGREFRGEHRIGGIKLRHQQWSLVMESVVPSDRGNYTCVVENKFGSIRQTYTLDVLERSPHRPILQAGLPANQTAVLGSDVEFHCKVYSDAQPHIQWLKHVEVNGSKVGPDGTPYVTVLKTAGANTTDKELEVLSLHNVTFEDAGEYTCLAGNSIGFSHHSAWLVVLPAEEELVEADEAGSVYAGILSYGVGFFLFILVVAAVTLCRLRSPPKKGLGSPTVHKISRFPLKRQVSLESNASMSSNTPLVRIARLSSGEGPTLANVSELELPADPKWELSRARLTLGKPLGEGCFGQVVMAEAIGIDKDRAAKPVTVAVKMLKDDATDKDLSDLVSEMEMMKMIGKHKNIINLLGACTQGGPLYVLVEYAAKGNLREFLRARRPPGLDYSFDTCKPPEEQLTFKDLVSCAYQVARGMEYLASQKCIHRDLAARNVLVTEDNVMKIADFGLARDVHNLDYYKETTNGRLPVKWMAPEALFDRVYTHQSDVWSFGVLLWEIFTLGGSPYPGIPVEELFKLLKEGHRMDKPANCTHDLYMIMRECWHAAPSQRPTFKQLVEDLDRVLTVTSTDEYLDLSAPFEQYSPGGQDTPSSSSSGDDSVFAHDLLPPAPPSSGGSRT

As to `CN(C(=O)CN1CCOCC1)c1ccc2sc3c(-c4cccc5c(=O)cc(N6CC7CCC(C6)O7)oc45)cccc3c2c1` [NU5455], the inhibition at 1 µM is 7.9%.
